Experimental findings from patent publication US12168646B2, “Aryl hydrocarbon receptor agonists and uses thereof” (NEXYS THERAPEUTICS, INC., priority 2022, dated 2024) are described below.

One data set deals with T1, AhR (Homo sapiens, UniProt P35869).
T1 construct: HT29-Lucia AhR cells were purchased from Invivogen (cat #ht21-ahr); host or cells: HT29-Lucia AhR cells
T1 sequence (P35869 11-848): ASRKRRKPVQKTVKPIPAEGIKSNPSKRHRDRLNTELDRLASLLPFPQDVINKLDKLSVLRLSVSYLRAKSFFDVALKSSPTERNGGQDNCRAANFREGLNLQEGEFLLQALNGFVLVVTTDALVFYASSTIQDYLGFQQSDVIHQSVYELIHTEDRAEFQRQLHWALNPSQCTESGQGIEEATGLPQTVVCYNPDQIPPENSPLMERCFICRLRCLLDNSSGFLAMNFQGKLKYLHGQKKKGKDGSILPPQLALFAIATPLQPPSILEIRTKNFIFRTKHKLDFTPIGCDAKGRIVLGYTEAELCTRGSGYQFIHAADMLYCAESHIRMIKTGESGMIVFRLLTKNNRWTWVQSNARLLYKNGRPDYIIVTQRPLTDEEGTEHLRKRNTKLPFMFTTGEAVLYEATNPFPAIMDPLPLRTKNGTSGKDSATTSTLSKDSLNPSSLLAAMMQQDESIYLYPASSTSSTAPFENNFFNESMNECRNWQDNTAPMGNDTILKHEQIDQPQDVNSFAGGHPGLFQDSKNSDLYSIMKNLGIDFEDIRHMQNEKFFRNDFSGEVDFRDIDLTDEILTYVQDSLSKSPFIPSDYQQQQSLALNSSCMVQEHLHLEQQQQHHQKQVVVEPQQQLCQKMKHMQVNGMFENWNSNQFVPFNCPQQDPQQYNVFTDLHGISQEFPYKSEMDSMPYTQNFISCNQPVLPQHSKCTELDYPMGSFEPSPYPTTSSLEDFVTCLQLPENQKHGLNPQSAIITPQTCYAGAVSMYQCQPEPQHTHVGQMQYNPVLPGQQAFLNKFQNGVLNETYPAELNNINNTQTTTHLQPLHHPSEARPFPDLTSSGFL
The experiment in a line: HT29 AhR Reporter Assay (HT29-Lucia AhR cells, QUANTI-Luc luminescence). The class given is cell-based. To be noted: for EC50: 18-24 h, EC50 = concentration to reach half of maximum efficacy of reference compound VAF347; for Emax: read-out: HT29 AhR % efficacy. On the procedure:
Biological Data 1: HT29 AhR Reporter Assay HT29-Lucia AhR cells were purchased from Invivogen (cat #ht21-ahr). […] The cell suspension was removed from growth medium and rinsed gently with pre-warmed PBS (10 mL). Pre-warmed Trypsin (1 mL) was added, and cells were held at 30° C. for about 5 min and then detached by pipette. The dissociated cell clumps were gently pipetted up and down. The cells were resuspended in pre-warmed detection medium (DMEM, 10% FBS (30 min at 56° C.), 100 U/ml penicillin, 100 μg/ml streptomycin, and test article or vehicle) and counted. A cell suspension of ˜500,000 cells/mL in Detection medium was prepared. […] Samples (20 μL/well) were pipetted into a 96-well white (opaque), and QUANTI-Luc™ (50 μL/well) was added. The plate was gently tapped and then read in a luminometer (0.1 s reading time).
In general terms: Reporter assays use an easily measured gene product as a stand-in for the process of interest.

Data set [1] in a line: Stability in human feces (azo reduction in feces homogenate). The format is in vitro ADME. To be noted: pH 6.8, 37° C., under nitrogen. As to the method:
Biological Data 2: Stability in Human Feces
Accordingly, selected azo compounds of the invention were exposed to human feces under conditions suitable to promote azo reduction.
The human feces from two donors were homogenized in isotonic phosphate buffered saline (pH 6.8) with a ratio of 1:10 (w/v). The tubes were sealed using sealing film. Test article was dissolved in isotonic phosphate buffer (pH 6.8) to form a working solution of 20 μM (if the solubility allows). An aliquot of working solution (50 μL) was added to the human feces homogenate (50 μL) for each time point (0, 1, 2, 4, 6 and 24 h) in duplicate and placed under nitrogen for about 1 minute in order to exhaust air, and then incubated at 37° C. After incubation at each pre-set time point, 1000 μL acetonitrile containing internal standard w as added to each tube to quench reaction. Samples were vortexed and centrifuged at 3700 rpm for 10 min and the supernatant was transferred for analysis (and diluted where necessary). The concentrations of test article and its metabolite (example 3) in the supernatants were determined using LC-MS/MS method. Sulfasalazine was used as a positive control. All incubations were performed in duplicate.

[2] abbreviates: HT29-Lucia AhR cells, % efficacy = 100%*(TA-BG)/(Ref-BG), Ref = VAF347.

Molecules are shown by their SMILES. Where two headings read alike, the source gives them in different places.

On to `Nc1ccc(-c2ccnc(Nc3ccc(C(F)(F)F)cc3)n2)cc1` [Example 1, 4-(4-aminophenyl)-N-(4-(trifluoromethyl)phenyl)pyrimidin-2-amine], for which the concentration for a half-maximal effect (EC50) (usually the midpoint of the concentration-response curve) on AhR (HT29-Lucia AhR cells) is more than 30 µM. Also, on AhR, the Emax was 16%.

For the compound `Nc1ccccc1-c1ccnc(Nc2ccc(C(F)(F)F)cc2)n1` [Example 3, 4-(2-aminophenyl)-N-(4-(trifluoromethyl)phenyl)pyrimidin-2-amine], the EC50 at AhR (HT29-Lucia AhR cells) was 1.33 µM. In addition, the Emax on AhR worked out at 165%.

In the case of `Nc1ccc(Cl)cc1-c1ccnc(Nc2ccc(C(F)(F)F)cc2)n1` [Example 4, 4-(2-amino-5-chlorophenyl)-N-(4-(trifluoromethyl)phenyl)pyrimidin-2-amine], the EC50 at AhR (HT29-Lucia AhR cells) was more than 30 µM. Further, on AhR, the Emax was determined as 18%.

At AhR (HT29-Lucia AhR cells), `Nc1ccc(-c2ccnc(Nc3ccc(C(F)(F)F)cc3)n2)cc1Cl` [Example 5, 4-(4-amino-3-chlorophenyl)-N-(4-(trifluoromethyl)phenyl)pyrimidin-2-amine] had an EC50 of 20 µM. Moreover, the Emax at AhR (setting [2]) was found to be 46%.

As to `Nc1cc(Cl)cc(-c2ccnc(Nc3ccc(C(F)(F)F)cc3)n2)c1` [Example 6, 4-(3-amino-5-chlorophenyl)-N-(4-(trifluoromethyl)phenyl)pyrimidin-2-amine], the EC50 on AhR (HT29-Lucia AhR cells) was more than 30 µM. In addition, the Emax at AhR (setting [2]) amounted to 15%.

For `Nc1ccc(C(=O)O)c(-c2ccnc(Nc3ccc(C(F)(F)F)cc3)n2)c1` [Example 7, 4-amino-2-(2-((4-(trifluoromethyl)phenyl)amino)pyrimidin-4-yl)benzoic acid], the concentration giving a half-maximal response (EC50) on AhR (HT29-Lucia AhR cells) is more than 30 µM. In addition, the Emax on AhR (setting [2]) was 29%.

On to `Nc1ccc(-c2ccnc(Nc3ccc(C(F)(F)F)cc3)n2)c(C(=O)O)c1` [Example 8, 5-amino-2-(2-((4-(trifluoromethyl)phenyl)amino)pyrimidin-4-yl)benzoic acid], for which the EC50 at AhR (HT29-Lucia AhR cells) was more than 30 µM. For the same compound, on AhR (setting [2]), the Emax turned out to be 13%.

`Nc1cccc(C(=O)O)c1-c1ccnc(Nc2ccc(C(F)(F)F)cc2)n1` [Example 9] had an EC50 at AhR (HT29-Lucia AhR cells) of 2.62 µM. The Emax on AhR was found to be 89%.

The compound `Nc1ccc(CC(=O)O)c(-c2ccnc(Nc3ccc(C(F)(F)F)cc3)n2)c1` [Example 10, 2-(4-amino-2-(2-((4-(trifluoromethyl)phenyl)amino)pyrimidin-4-yl)phenyl)acetic acid] had an EC50 on AhR (HT29-Lucia AhR cells) of 9.24 µM. For the same compound, the Emax at AhR (setting [2]) amounted to 69%.

For `Nc1ccc(O)c(-c2ccnc(Nc3ccc(C(F)(F)F)cc3)n2)c1` [Example 11, 4-amino-2-(2-((4-(trifluoromethyl)phenyl)amino)pyrimidin-4-yl)phenol], the EC50 at AhR (HT29-Lucia AhR cells) was more than 30 µM. In addition, the Emax at AhR was -17%.

Turning to `Nc1ccc(O)cc1-c1ccnc(Nc2ccc(C(F)(F)F)cc2)n1` [Example 12, 4-amino-3-(2-((4-(trifluoromethyl)phenyl)amino)pyrimidin-4-yl)phenol], the EC50 on AhR (HT29-Lucia AhR cells) was more than 30 µM. Further, the Emax at AhR amounted to 17%.

In turn, `CS(=O)(=O)c1ccc(N)c(-c2ccnc(Nc3ccc(C(F)(F)F)cc3)n2)c1` [Example 13, 4-(2-amino-5-(methylsulfonyl)phenyl)-N-(4-(trifluoromethyl)phenyl)pyrimidin-2-amine] came in with an EC50 at AhR (HT29-Lucia AhR cells) of more than 30 µM. The Emax at AhR came to 7%.

The compound `CS(=O)(=O)c1ccc(N)cc1-c1ccnc(Nc2ccc(C(F)(F)F)cc2)n1` [Example 14, 4-(5-amino-2-(methylsulfonyl)phenyl)-N-(4-(trifluoromethyl)phenyl)pyrimidin-2-amine] came in with an EC50 on AhR (HT29-Lucia AhR cells) of 16.9 µM. Besides, on AhR, the Emax was found to be 51%.

Take `Nc1cccc(-c2ccnc(Nc3ccc(C(=O)O)cc3)n2)c1` [Example 18, 4-((4-(3-aminophenyl)pyrimidin-2-yl)amino)benzoic acid]: on AhR (HT29-Lucia AhR cells), the EC50 was more than 30 µM. The Emax at AhR (setting [2]) worked out at 10%.

The compound `Nc1cccc(-c2ccnc(Nc3cccc(C(=O)O)c3)n2)c1` [Example 20, 3-((4-(3-aminophenyl)pyrimidin-2-yl)amino)benzoic acid] registered an EC50 on AhR (HT29-Lucia AhR cells) of more than 30 µM. Also, at AhR (setting [2]), the Emax turned out to be 13%.

`Nc1cc(C(F)(F)F)ccc1Nc1nccc(-c2cccc(Cl)c2)n1` [Example 21, N^1-(4-(3-chlorophenyl)pyrimidin-2-yl)-4-(trifluoromethyl)benzene-1,2-diamine] showed a half-maximal effective concentration (EC50) at AhR (HT29-Lucia AhR cells) of more than 30 µM. Also, on AhR (setting [2]), the Emax was found to be 27%.

Compound `Nc1cc(Nc2nccc(-c3cccc(Cl)c3)n2)ccc1C(F)(F)F` [Example 22, N^1-(4-(3-chlorophenyl)pyrimidin-2-yl)-4-(trifluoromethyl)benzene-1,3-diamine] came in with an EC50 on AhR (HT29-Lucia AhR cells) of 0.018 µM. Also, the Emax on AhR (setting [2]) amounted to 124%.

As to `Nc1cc(Nc2nccc(-c3ccccc3C(=O)O)n2)ccc1C(F)(F)F` [Example 23, 2-(2-((3-amino-4-(trifluoromethyl)phenyl)amino)pyrimidin-4-yl)benzoic acid], the concentration giving a half-maximal response (EC50) at AhR (HT29-Lucia AhR cells) was more than 30 µM. The Emax at AhR (setting [2]) is 33%.

Consider `Nc1cc(Nc2nccc(-c3cccc(C(=O)O)c3)n2)ccc1C(F)(F)F` [Example 24, 3-(2-((3-amino-4-(trifluoromethyl)phenyl)amino)pyrimidin-4-yl)benzoic acid], for which the EC50 on AhR (HT29-Lucia AhR cells) is more than 30 µM. In addition, at AhR (setting [2]), the Emax came to 5%.

At AhR (HT29-Lucia AhR cells), `Nc1ccc(Nc2nccc(-c3ccccc3O)n2)cc1` [Example 25, 2-(2-((4-aminophenyl)amino)pyrimidin-4-yl)phenol] had an EC50 of 6.92 µM. Further, the Emax at AhR (setting [2]) amounted to 21%.

`Nc1cccc(Nc2nccc(-c3ccccc3O)n2)c1` [Example 26, 2-(2-((3-aminophenyl)amino)pyrimidin-4-yl)phenol] displayed a 50% effective concentration (EC50) at AhR (HT29-Lucia AhR cells) of more than 30 µM. Also, the Emax at AhR (setting [2]) is 141%.

In the case of `O=C(O)c1cc(/N=N/c2cccc(-c3ccnc(Nc4ccc(C(F)(F)F)cc4)n3)c2)ccc1O` [Example 27, (E)-2-hydroxy-5-((3-(2-((4-(trifluoromethyl)phenyl)amino)pyrimidin-4-yl)phenyl)diazenyl)benzoic acid], the “% of parent remaining after incubation for 6 h” value (“% of parent remaining” below) in data set [1] turned out to be 74%.

With `O=C(O)c1cc(/N=N/c2ccccc2-c2ccnc(Nc3ccc(C(F)(F)F)cc3)n2)ccc1O` [Example 32, (E)-2-hydroxy-5-((2-(2-((4-(trifluoromethyl)phenyl)amino)pyrimidin-4-yl)phenyl)diazenyl)benzoic acid], the “% of parent remaining” value in data set [1] stood at 49%.

As for `Oc1ccc(/N=N/c2ccccc2-c2ccnc(Nc3ccc(C(F)(F)F)cc3)n2)cc1` [Example 33, (E)-4-((2-(2-((4-(trifluoromethyl)phenyl)amino)pyrimidin-4-yl)phenyl)diazenyl)phenol], in data set [1], the “% of parent remaining” value turned out to be 59%.

With `O=C(O)c1cccc(/N=N/c2ccccc2-c2ccnc(Nc3ccc(C(F)(F)F)cc3)n2)c1` [Example 34, (E)-3-((2-(2-((4-(trifluoromethyl)phenyl)amino)pyrimidin-4-yl)phenyl)diazenyl)benzoic acid], the “% of parent remaining” value in data set [1] is recorded as 95%.

In the case of `O=C(O)c1ccc(O)c(/N=N/c2ccccc2-c2ccnc(Nc3ccc(C(F)(F)F)cc3)n2)c1` [Example 36, (E)-4-Hydroxy-3-((2-(2-((4-(trifluoromethyl)phenyl)amino)pyrimidin-4-yl)phenyl)diazenyl)benzoic acid], in data set [1], the “% of parent remaining” value came to 19%.

On AhR (HT29-Lucia AhR cells), `FC(F)(F)c1ccc(Nc2nccc(-c3cccc(Cl)c3)n2)cc1` [VAF347, reference compound] displayed a concentration for a half-maximal effect (EC50) of 0.026 µM. On AhR (setting [2]), the Emax is 100%.
